Measured values as given in US20070082903A1, “Remedy for rheumatoid arthritis” (priority 2003, published 2007).
Like-named read-outs stand apart in the source and are kept apart here.

Tests used:
[1] = tolerance test by a single administration, healthy person Japanese; assay type: in vivo, human; conditions: single dose 10, 20, 40, 80 or 120 mg, tablets, hungry, healthy male Japanese
Experimental: • (1) A single-administration test on healthy male Japanese (20 to 40 years old, body weight: less than 80 kg and not less than 50 kg, degree of corpulence: ±20% or less) was carried out. Using the SMP-114 tablets and a placebo as control, 10, 20, 40, 80 or 120 mg of SMP-114 was administered by a single-blind method when the subjects were hungry (at each dose, 6 cases of SMP-114 administration and 2 cases of placebo administration: 40 subjects in total). As to items of evaluation related to safety, observations about the following were carried out: vital signs (body temperature, blood pressure-pulse rate and respiration rate), 12-induction electrocardiogram, clinical examinations [hematological examination, blood biochemical examination, endocrinological examinations (FT4, FT3 and TSH), serological examination (haptoglobin) and urinalysis], and harmful matters. As items of evaluation related to pharmacokinetics, the concentrations of SMP-114 and its metabolites in serum and urine were measured. […]

[2] = tolerance test by a single administration, healthy male Caucasians; assay type: in vivo, human; conditions: single oral dose 10, 20, 40, 60, 80, 100, 120 or 140 mg, suspension, fasted
[3] = repeated administration test on healthy male Caucasians (7 days), serum concentration by LC-MS/MS; assay type: in vivo, human; conditions: for AUC(0-t): serum, oral, read-out: AUC0-24 at the steady state
Experimental: A repeated administration test on healthy male Caucasians of 18 to 50 years old was carried out. Using the SMP-114 tablets and placebo tablets, 80 mg or 120 mg of each of the placebo and SMP-114 was orally administered once a day for 7 days by a placebo controlled double-blind method (at each dose, 8 cases of SMP-114 administration and 2 cases of placebo administration: 20 subjects in total).
The SMP-114 concentration in serum was measured by a LC-MS/MS method by employing the following pretreatment and measuring conditions.
1) To each of the standard sample solutions for calibration curve, the QC sample and the samples to be analyzed was added 10 mL of an internal standard solution (d5-SMP-114 5 ng/mL), and stirred.
2) To the resulting mixture were added 1 mL of 100 mmol/L ammonium acetate buffer (pH 4.0) and then 6 mL of diethyl ether, and stirred for 10 minutes, followed by centrifugation at 4° C. and 3000 rpm for 10 minutes.
3) The supernatant was transferred to a glass tube and concentrated to dryness in a nitrogen stream (40° C.) in an aluminum-blocked thermostatic chamber.
4) To the residue was added 120 μL of 50 vol % acetonitrile and the residue was redissolved with an ultrasonic bath and a Vortex mixer.
5) The solution obtained by the redissolution was transferred to a filter and centrifuged at 5000 rpm for 3 minutes.
6) The filtrate was transferred to an auto-sampler vial to obtain a sample solution for measurement.
LC-MS/MS measurement was carried out under the following conditions. However, parameters (e.g. gas volume and collision voltage) whose optimum values were variable depending on the condition of a mass spectrometer were properly changed.
Mobile phase: eluent A; 0.3 vol % acetic acid eluent B; acetonitrile
• Flow rate: 0.2 ml/min • Analytical column: Puresil C18, 2.1 mm i.d.×150 mm, […] (Waters) • Auto-sampler tray: 4° C. • Column temperature: 35° C. • Valve switching: 0-1.5 min. discard, 1.5-9.0 min. ion source for SMP-114, 9.0-15.0 min. discard • Injecting volume: […] MS/MS Conditions • Ionization method: electro-ion spray method, positive mode • MS/MS mode: SRM (selected reaction monitoring) • Monitor ion: SMP-114 Q1 m/z 395.1→Q3 m/z 199.0 (±25 eV) d5-SMP-114 Q1 m/z 400.2→Q3 m/z 204.0 (−25 eV) • Total scan time: 0.6 second (SMP-114 and d5-SMP-114) • Ionization voltage: 4.5 kV for SMP-114 • Sheath gas: 70 psi (nitrogen gas) • Auxiliary gas: 30 units (nitrogen gas) • Capillary tube temperature: 230° C. • Collision gas: 2.1-2.2 mT (argon) • Multiplier: 1300 V

[4] = test system: rats with adjuvant arthritis; conditions: cited from earlier work
[5] = test system: mice with collagen arthritis; conditions: cited from earlier work
[6] = test system: mice with collagen arthritis; assay: antiarthritic effect in mice with collagen arthritis; assay type: in vivo; conditions: considered on the basis of the rat adjuvant arthritis and mouse collagen arthritis results
Experimental: On the other hand, it is known that 3-[(1S)-1-(2-fluorobiphenyl-4-yl)ethyl]-5-{[amino(morpholin-4-yl)methylene]amino}isoxazole (hereinafter referred to also as “compound (I)” or “SMP-114”) is useful as, for example, an excellent medicament for treating autoimmune diseases, inflammatory diseases and the like.
It was 5 mg/kg (once-a-day oral administration) in the case of mice with collagen arthritis (F. Nishikaku, “Annals of the Rheumatic Diseases”, vol. 61 supplement 1, p. 194 (2002)).

AUC(0-t) ([3]; human, 80 mg treated group, once a day for 7 days, healthy male Caucasians): 10600 ng·h/mL
AUC(0-t) ([3]; human, 120 mg treated group, once a day for 7 days, healthy male Caucasians): 16700 ng·h/mL
accumulative property ([3]; once a day for 7 days, healthy male Caucasians): no accumulative property
Compound: C[C@@H](c1ccc(-c2ccccc2)c(F)c1)c1cc(/N=C(/N)N2CCOCC2)on1 [SMP-114, 3-[(1S)-1-(2-fluorobiphenyl-4-yl)ethyl]-5-{[amino(morpholin-4-yl)methylene]amino}isoxazole]
side effects undesirable with respect to tolerance [1]: observed at none of the doses
side effects undesirable with respect to tolerance [2]: observed at none of the doses
side effects undesirable with respect to tolerance ([3]; 80 mg or 120 mg oral once a day for 7 days, healthy male Caucasians): observed at neither of the doses
tolerance ([3]; repeated once-a-day dose of about 120 mg or less, human): satisfactory
minimum effective amount for antiarthritic effect ([4]; once-a-day oral administration): 2.5 mg/kg
antiarthritic effect ([4]; rats with adjuvant arthritis): antiarthritic effect
antiarthritic effect ([5]; mice with collagen arthritis): antiarthritic effect
minimum effective amount for antiarthritic effect ([5]; once-a-day oral administration): 5 mg/kg
dose at which SMP-114 exhibits its efficacy [6]: ≥ 5 mg/kg
